Laboratory results taken from ChEMBL document CHEMBL1143897, “Aryl-indolyl maleimides as inhibitors of CaMKIIdelta. Part 2: SAR of the amine tether” (Bioorg Med Chem Lett, 2008).

Biological target: Calcium/calmodulin-dependent protein kinase type II subunit delta (Homo sapiens, UniProt Q13557)
Assay: Inhibition of CaMK2delta

Calcium/calmodulin-dependent protein kinase type II subunit delta, sequence (Q13557 whole entry): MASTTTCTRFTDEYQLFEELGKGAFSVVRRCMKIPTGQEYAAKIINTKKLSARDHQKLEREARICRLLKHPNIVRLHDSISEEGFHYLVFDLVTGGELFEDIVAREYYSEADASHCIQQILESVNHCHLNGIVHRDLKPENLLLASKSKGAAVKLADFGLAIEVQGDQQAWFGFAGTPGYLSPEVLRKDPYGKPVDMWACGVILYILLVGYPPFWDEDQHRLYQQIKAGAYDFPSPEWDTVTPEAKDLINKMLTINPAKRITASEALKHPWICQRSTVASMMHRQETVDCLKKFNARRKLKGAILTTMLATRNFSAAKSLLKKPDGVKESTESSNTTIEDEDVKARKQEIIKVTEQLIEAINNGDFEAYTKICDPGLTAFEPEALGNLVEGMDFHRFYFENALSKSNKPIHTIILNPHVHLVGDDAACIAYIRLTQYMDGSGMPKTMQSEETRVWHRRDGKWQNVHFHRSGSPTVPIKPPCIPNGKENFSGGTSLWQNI

| SMILES | IC50 [nM] |
| --- | --- |
| Cn1cc(C2=C(c3cn(C4CCN(Cc5ccccc5)CC4)c4ccccc34)C(=O)NC2=O)c2ccccc21 | 1870 |
| NCCCn1cc(C2=C(c3ccccc3)C(=O)NC2=O)c2ccccc21 | 1350 |
| NCCCn1cc(C2=C(c3c[nH]c4ccc(Br)cc34)C(=O)NC2=O)c2ccccc21 | 34 |
| CC(C)(C)OC(=O)NCCCn1cc(C2=C(c3c[nH]c4ccc(Br)cc34)C(=O)NC2=O)c2ccccc21 | 7540 |
| CC(C)(C)OC(=O)NCCCn1cc(C2=C(c3c[nH]c4ccccc34)C(=O)NC2=O)c2ccccc21 | 3810 |
| Cn1cc(C2=C(c3c[nH]c4ccc(Br)cc34)C(=O)NC2=O)c2ccccc21 | 870 |
| O=C1NC(=O)C(c2cn(CCC3CCCCN3)c3ccccc23)=C1c1c[nH]c2ccccc12 (stereo not drawn) | 1450 |
| Cn1cc(C2=C(c3ccccc3)C(=O)NC2=O)c2ccccc21 | > 20000 |
| NCC(O)Cn1cc(C2=C(c3ccccc3)C(=O)NC2=O)c2ccccc21 (stereo not drawn) | 450 |
| NCCCn1cc(C2=C(c3cccc(Br)c3)C(=O)NC2=O)c2ccccc21 | 180 |
| CC(C)(C)OC(=O)NCCCn1cc(C2=C(c3ccccc3)C(=O)NC2=O)c2ccccc21 | > 20000 |
| O=C1NC(=O)C(c2c[nH]c3ccccc23)=C1c1cccc(Br)c1 | 3530 |
| O=C1NC(=O)C(c2c[nH]c3ccccc23)=C1c1c[nH]c2ccccc12 [RO-316233] | 1190 |
| CN1CCCC1CCn1cc(C2=C(c3c[nH]c4ccccc34)C(=O)NC2=O)c2ccccc21 (stereo not drawn) | 1890 |
| Cn1cc(C2=C(c3cn(C4CCCNC4)c4ccccc34)C(=O)NC2=O)c2ccccc21 (stereo not drawn) | 300 |
| O=C1NC(=O)C(c2c[nH]c3ccccc23)=C1c1ccccc1 | > 20000 |
| O=C1NC(=O)C(c2cn(CCCN3CCNCC3)c3ccccc23)=C1c1c[nH]c2ccccc12 | 2020 |
| Cn1cc(C2=C(c3cn(CCCN)c4ccccc34)C(=O)NC2=O)c2ccccc21 | 310 |
